In PMC3046181, “Elimination of Endogenous Toxin, Creatinine from Blood Plasma Depends on Albumin Conformation: Site Specific Uremic Toxicity & Impaired Drug Binding” (PLoS ONE, 2011):

Target: T1, Human serum albumin (HSA) (Homo sapiens, UniProt P02768)
T1 construct: gene ALB; commercial native serum albumin (Sigma), essentially fatty acid free and globulin free; monomer
Test: isothermal titration calorimetry, single set of identical sites
Format: binding
Conditions: read-out: Ka[M^-1] / ITC ^a (converted)
Source text: isothermal titration calorimetry, single set of identical sites on Human serum albumin (HSA)

T1 sequence (P02768 25-609): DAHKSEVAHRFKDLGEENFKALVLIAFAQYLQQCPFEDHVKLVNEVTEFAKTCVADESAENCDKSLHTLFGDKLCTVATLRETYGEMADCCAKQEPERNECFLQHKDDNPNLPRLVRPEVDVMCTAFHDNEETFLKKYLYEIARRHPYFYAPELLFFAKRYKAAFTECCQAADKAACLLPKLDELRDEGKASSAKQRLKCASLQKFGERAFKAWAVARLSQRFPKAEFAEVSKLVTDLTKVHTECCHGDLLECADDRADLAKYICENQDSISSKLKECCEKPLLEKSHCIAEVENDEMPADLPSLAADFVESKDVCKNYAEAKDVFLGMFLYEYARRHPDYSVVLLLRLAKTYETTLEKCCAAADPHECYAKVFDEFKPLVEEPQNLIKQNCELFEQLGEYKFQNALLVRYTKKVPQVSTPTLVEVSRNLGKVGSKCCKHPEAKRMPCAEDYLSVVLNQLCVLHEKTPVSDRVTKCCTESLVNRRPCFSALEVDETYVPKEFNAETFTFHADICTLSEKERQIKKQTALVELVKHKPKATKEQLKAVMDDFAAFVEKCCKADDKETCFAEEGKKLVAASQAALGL

## CN1CC(=O)NC1=N [creatinine, 2-Amino-1-methyl-5H-imidazol-4-one]
  Kd: 11.2 µM
